Data taken from patent publication US20260374773A1, “MULTI-CYCLIC IRAK AND FLT3 INHIBITING COMPOUNDS AND USES THEREOF” (CHILDREN'S HOSPITAL MEDICAL CENTER, priority 2022, published 2026).

Key:
Format in all cases: cell-based
[1] = tested on: NF-κB; assay: NF-κB SEAP reporter assay in THP-1-Blue NF-κB cells, Pam3CSK4 stimulated; settings: THP-1-Blue cells, 1 ng/ml Pam3CSK4, 24 h, read-out: NF-κB Pam3SCK4 IC50
Experimental: (§1) THP-1-Blue NF-κB cells (InvivoGen) carrying a stable integrated NF-κB-inducible secreted embryonic alkaline phosphatase (SEAP) reporter construct were plated at a concentration of 1×10^5 cells per well. The cells were stimulated with Pam3CSK4 (1 ng/ml) or hIL1B (1 ng/ml). After 10-20 minutes, the cells were then treated with vehicle (DMSO) or serial dilutions of the test compounds (10 doses tested for each test compound, with a […] starting at 1 μM or 3 μM) with a final volume of 200 μL for 24 hours at 37 °C. After 24 hours, the cells were centrifuged and 20 μL supernatant was incubated with 180 μL QUANTI-Blue reagent at 37 °C for 30-60 minutes. The levels of NF-κB-induced was measured in a microplate reader at 620 nm.
as §1, with “1 mM” for “1 μM”, “3 mM)” for “3 μM)”, “200 mL” for “200 μL”, “20 mL” for “20 μL”, “180 mL” for “180 μL”, “NF-κB-induced gene expression were” for “NF-κB-induced was”

[2] = tested on: NF-κB; assay: NF-κB SEAP reporter assay in THP-1-Blue NF-κB cells, hIL1B stimulated; settings: THP-1-Blue cells, 1 ng/ml hIL1B, 24 h, read-out: NF-κB IL1B IC50
Experimental: as §1
as §1, with “1 mM” for “1 μM”, “3 mM)” for “3 μM)”, “200 mL” for “200 μL”, “20 mL” for “20 μL”, “180 mL” for “180 μL”, “NF-κB-induced gene expression were” for “NF-κB-induced was”

[3] = tested on: MOLM14 F691L cells; assay: MOLM14 F691L cell viability (Cell Titer Glo); settings: Homo sapiens
Experimental: Both cell lines have activated FLT3 receptors, each of which carry additional resistance mutations in the kinase domain (D835Y and F691L, respectively).
MOLM14 D835Y and MOLM14 F691L cells were grown in RPMI-1640 media supplemented with 20% fetal bovine serum (FBS). For viability/cytotoxicity assessments, cells were seeded into 1536-well white polystyrene tissue culture-treated Greiner plates using a Multidrop Combi dispenser (ThermoFisher), in final volume 5 μL of growth media per well, at a density of 1000 cells per well. After cell addition, 23 nL of test compound were transferred into individual wells (22 doses tested for each test compound, with a 1:2 dilution series starting at 10 μM) via a 1536 pin-tool. Bortezomib (final concentration 2.3 μM) was used as a positive control for cell cytotoxicity. Plates were incubated for 48 hours at standard incubator conditions covered by a stainless steel gasketed lid to prevent evaporation. 48 hours post compound addition, 3 μL of Cell Titer Glo (Promega) were added to each well and plates were incubated at room temperature for 15 minutes with the stainless-steel lid in place. Luminescence readings were taken using a Viewlux imager (PerkinElmer) with a 2 second exposure time per plate.

IC50 ([1]; Table 15) | IC50 ([2]; Table 15) | IC50 ([1]; Table 21) | IC50 ([2]; Table 21) | IC50 ([3]; MOLM-14, Table 16, 48 h) | IC50 ([3]; MOLM-14, Table 22, 48 h) | SMILES
 |  | 83 nM | 55 nM |  |  | COc1cn2ncc(-c3cncc(N[C@H]4CNCC[C@@H]4F)n3)c2nc1C1CC1 [Compound 12a, 6-(5-cyclopropyl-6-methoxypyrazolo[1,5-a]pyrimidin-3-yl)-N-((3S,4S)-4-fluoropiperidin-3-yl)pyrazin-2-amine]
 |  |  |  |  | 565 nM | COc1cn2ncc(-c3ccnc(N[C@H]4CNCC[C@@H]4F)n3)c2nc1C(C)(C)O [Compound 3a, 2-(3-(2-(((3S,4S)-4-fluoropiperidin-3-yl)amino)pyrimidin-4-yl)-6-methoxypyrazolo[1,5-a]pyrimidin-5-yl)propan-2-ol]
 |  |  |  |  | 225 nM | COc1cn2ncc(-c3nc(N[C@H]4CNC[C@@H]4F)ncc3F)c2nc1C(C)(C)O [Compound 5a, 2-(3-(5-fluoro-2-(((3S,4S)-4-fluoropyrrolidin-3-yl)amino)pyrimidin-4-yl)-6-methoxypyrazolo[1,5-a]pyrimidin-5-yl)propan-2-ol]
 |  | 57 nM | 52 nM |  | 45 nM | COc1cn2ncc(-c3nc(N[C@H]4CNCC[C@@H]4F)ncc3F)c2nc1C(C)(C)O [Compound 6a, 2-(3-(5-fluoro-2-(((3S,4S)-4-fluoropiperidin-3-yl)amino)pyrimidin-4-yl)-6-methoxypyrazolo[1,5-a]pyrimidin-5-yl)propan-2-ol]
 |  | 331 nM | 244 nM |  |  | COc1cn2ncc(-c3cncc(N[C@@H]4CCCNC4)n3)c2nc1C1CC1 [Compound 11a, (R)-6-(5-cyclopropyl-6-methoxypyrazolo[1,5-a]pyrimidin-3-yl)-N-(piperidin-3-yl)pyrazin-2-amine]
 |  | 55 nM | 50 nM |  |  | COc1cn2ncc(-c3ccnc(N[C@H]4CNCC[C@@H]4F)n3)c2nc1C1CC1 [Compound 7a, 4-(5-cyclopropyl-6-methoxypyrazolo[1,5-a]pyrimidin-3-yl)-N-((3S,4S)-4-fluoropiperidin-3-yl)pyrimidin-2-amine]
 |  | 5 nM | 8 nM |  |  | COc1cn2ncc(-c3nc(N[C@H]4CNCC[C@@H]4F)ncc3F)c2nc1C1CC1 [Compound 15a, 4-(5-cyclopropyl-6-methoxypyrazolo[1,5-a]pyrimidin-3-yl)-5-fluoro-N-((3S,4S)-4-fluoropiperidin-3-yl)pyrimidin-2-amine]
 |  | 72 nM | 46 nM |  |  | COc1cn2ncc(-c3ccnc(N[C@H]4CNC[C@@H]4F)n3)c2nc1C1CC1 [Compound 8a, 4-(5-cyclopropyl-6-methoxypyrazolo[1,5-a]pyrimidin-3-yl)-N-((3S,4S)-4-fluoropyrrolidin-3-yl)pyrimidin-2-amine]
 |  | 15 nM | 22 nM |  |  | COc1cn2ncc(-c3nc(N[C@@H]4CCCNC4)ncc3F)c2nc1C1CC1 [Compound 14a, (R)-4-(5-cyclopropyl-6-methoxypyrazolo[1,5-a]pyrimidin-3-yl)-5-fluoro-N-(piperidin-3-yl)pyrimidin-2-amine]
 |  |  |  |  | 101 nM | COc1cn2ncc(-c3nc(N[C@@H]4CCCNC4)ncc3F)c2nc1C(C)(C)O [Compound 4a, (R)-2-(3-(5-fluoro-2-(piperidin-3-ylamino)pyrimidin-4-yl)-6-methoxypyrazolo[1,5-a]pyrimidin-5-yl)propan-2-ol]
 |  | 19 nM | 27 nM |  |  | COc1cn2ncc(-c3nc(N[C@H]4CNC[C@@H]4F)ncc3F)c2nc1C1CC1 [Compound 13a, 4-(5-cyclopropyl-6-methoxypyrazolo[1,5-a]pyrimidin-3-yl)-5-fluoro-N-((3S,4S)-4-fluoropyrrolidin-3-yl)pyrimidin-2-amine]

The next lines start with the molecule.

SMILES | IC50 ([1]; Table 15) | IC50 ([2]; Table 15) | IC50 ([1]; Table 21) | IC50 ([2]; Table 21) | IC50 ([3]; MOLM-14, Table 16, 48 h) | IC50 ([3]; MOLM-14, Table 22, 48 h)
COc1cn2ncc(-c3nc(N[C@H]4CNCC[C@@H]4F)c(F)cc3F)c2nc1C1CC1 [Compound 22, 6-(5-cyclopropyl-6-methoxypyrazolo[1,5-a]pyrimidin-3-yl)-3,5-difluoro-N-((3S,4S)-4-fluoropiperidin-3-yl)pyridin-2-amine] | 7 nM | 19 nM |  |  |  | 
COc1cn2ncc(-c3ccc(F)c(N[C@@H]4CCCNC4)n3)c2nc1C1CC1 [Compound 5, (R)-6-(5-cyclopropyl-6-methoxypyrazolo[1,5-a]pyrimidin-3-yl)-3-fluoro-N-(piperidin-3-yl)pyridin-2-amine] |  |  |  |  | 127 nM | 
COc1cn2ncc(-c3nc(N[C@@H]4CCCNC4)c(F)cc3F)c2nc1C(C)(C)O [Compound 11, (R)-2-(3-(3,5-difluoro-6-(piperidin-3-ylamino)pyridin-2-yl)-6-methoxypyrazolo[1,5-a]pyrimidin-5-yl)propan-2-ol] | 128 nM | 101 nM |  |  | 142 nM | 
COc1cn2ncc(-c3nc(N[C@@H]4CCCNC4)ccc3F)c2nc1C1CC1 [Compound 2, (R)-6-(5-cyclopropyl-6-methoxypyrazolo[1,5-a]pyrimidin-3-yl)-5-fluoro-N-(piperidin-3-yl)pyridin-2-amine] | 71 nM | 94 nM |  |  | 14 nM | 
COc1cn2ncc(-c3cccc(N[C@H]4CNC[C@@H]4F)n3)c2nc1C1CC1 [Compound 19, 6-(5-cyclopropyl-6-methoxypyrazolo[1,5-a]pyrimidin-3-yl)-N-((3S,4S)-4-fluoropyrrolidin-3-yl)pyridin-2-amine] | 61 nM | 97 nM |  |  |  | 
COc1cn2ncc(-c3cccc(N[C@H]4CNCC[C@@H]4F)n3)c2nc1C1CC1 [Compound 21, 6-(5-cyclopropyl-6-methoxypyrazolo[1,5-a]pyrimidin-3-yl)-N-((3S,4S)-4-fluoropiperidin-3-yl)pyridin-2-amine] | 362 nM | 342 nM |  |  |  | 
COc1cn2ncc(-c3cccc(N[C@@H]4CCCNC4)n3)c2nc1C1CC1 [Compound 20, (R)-6-(5-cyclopropyl-6-methoxypyrazolo[1,5-a]pyrimidin-3-yl)-N-(piperidin-3-yl)pyridin-2-amine] | 441 nM | 646 nM |  |  |  | 
COc1cn2ncc(-c3nc(N[C@H]4CNC[C@@H]4F)c(F)cc3F)c2nc1C(C)(C)O [Compound 12, 2-(3-(3,5-difluoro-6-(((3S,4S)-4-fluoropyrrolidin-3-yl)amino)pyridin-2-yl)-6-methoxypyrazolo[1,5-a]pyrimidin-5-yl)propan-2-ol] | 42 nM | 41 nM |  |  | 449 nM | 
COc1cn2ncc(-c3nc(N[C@H]4CNCC[C@@H]4F)c(F)cc3F)c2nc1C(C)(C)O [Compound 13, 2-(3-(3,5-difluoro-6-(((3S,4S)-4-fluoropiperidin-3-yl)amino)pyridin-2-yl)-6-methoxypyrazolo[1,5-a]pyrimidin-5-yl)propan-2-ol] | 99 nM | 73 nM |  |  | 113 nM | 
COc1cn2ncc(-c3ccc(F)c(N[C@H]4CNCC[C@@H]4F)n3)c2nc1C1CC1 [Compound 6, 6-(5-cyclopropyl-6-methoxypyrazolo[1,5-a]pyrimidin-3-yl)-3-fluoro-N-((3S,4S)-4-fluoropiperidin-3-yl)pyridin-2-amine] | 300 nM | 219 nM |  |  | 71 nM | 
COc1cn2ncc(-c3nc(N[C@H]4CNCC[C@@H]4F)c(C#N)cc3F)c2nc1C(C)(C)O [Compound 10, 5-fluoro-2-(((3S,4S)-4-fluoropiperidin-3-yl)amino)-6-(5-(2-hydroxypropan-2-yl)-6-methoxypyrazolo[1,5-a]pyrimidin-3-yl)nicotinonitrile] | 22 nM | 41 nM |  |  |  | 
COc1cn2ncc(-c3nc(N[C@@H]4CCCNC4)c(C#N)cc3F)c2nc1C(C)(C)O [Compound 9, (R)-5-fluoro-6-(5-(2-hydroxypropan-2-yl)-6-methoxypyrazolo[1,5-a]pyrimidin-3-yl)-2-(piperidin-3-ylamino)nicotinonitrile] | 39 nM | 88 nM |  |  | 142 nM | 
COc1cn2ncc(-c3nc(N[C@H]4CNCC[C@@H]4F)ccc3F)c2nc1C1CC1 [Compound 3, 6-(5-cyclopropyl-6-methoxypyrazolo[1,5-a]pyrimidin-3-yl)-5-fluoro-N-((3S,4S)-4-fluoropiperidin-3-yl)pyridin-2-amine] | 22 nM | 26 nM |  |  | 6 nM | 
